According to EP4458820A1 (Shanghai Institute of Materia Medica, Chinese Academy of …, priority 2021, dated 2023):
Values joined by “and” are separate entries in the source; they are usually repeats but may differ in a detail not shown here. Identical values can stand only once. Like-named read-outs stand apart in the source and are kept apart here.

Assays:
[1] = system: THRβ receptor downstream genes; assay: acute pharmacodynamic evaluation: THRβ receptor downstream gene expression in liver after single administration; type: in vivo, C57 mice
Description: (§1) Mice or rats were used for single oral administration, and liver and heart were taken at 3 time points after administration to detect the expression of THRβ receptor downstream genes (DIO1, ME, CYP7α1, LDLR) in the target organ-liver, and to detect the expression of THRβ receptor downstream genes (DIO1, MHCα) in the organ involved in toxicity-heart.

MHCα = assay: preliminary safety assessment: MHCα expression in the heart of C57 mice; type: in vivo; conditions: after administration
Description: as §1

thyroid axis = assay: inhibitory effect on the thyroid axis in C57 mice; type: in vivo; conditions: administered at high doses
[2] = pharmacokinetic studies in mice; type: in vivo; design: AUC(0-t) / AUClast: concentration or dose not given beside the values; conditions: for F: bioavailability p.o. versus i.v.
Protocol: The preliminary pharmacokinetic studies in mice or rats of the target compounds with excellent activity obtained from the above studies were conducted to investigate the pharmacokinetic properties of the compounds under oral, intraperitoneal and intravenous administration in detail, and to calculate the parameters of in vivo exposure (AUC), peak concentration (Cmax), time to peak (Tmax), half-life period (T1/2) and bioavailability (F), which would provide a clue for further structural modification and optimization of the compounds, as well as a basis for in vivo dosage design.

[3] = system: cardiac DIO1 and MHCα genes; assay: in vivo safety evaluation: downstream gene expression in the heart of thyroidectomized rats
Protocol: Normal SD rats, which underwent thyroidectomy and recovered for 1-2 weeks, were grouped by body weight and then given the test compounds or the positive compound MGL-3196. Cardiac tissues were taken after euthanasia 6 h after the administration of the drug to examine the expression of the αMHC gene in the heart after single dose of the drug.

[4] = tissue distribution studies in mice; type: in vivo; conditions: for concentration at 3 h / concentration at 8 h / concentration at 24 h: mouse, po
[5] = system: CDAHFD feed-induced NAFLD model mice; assay: pharmacodynamic evaluation in CDAHFD feed-induced NAFLD model mice; type: in vivo; conditions: after 2 and 4 weeks of long-term administration
[6] = system: high-fat feed -induced golden hamster model; assay: pharmacodynamic evaluation in high-fat feed-induced golden hamster model; type: in vivo; conditions: 10 mg/kg, after 21 days of administration
[7] = mouse, in vivo, iv, individual animal
[8] = mouse, in vivo, po, individual animal
[9] = mouse, in vivo, po, individual animal, read-out: Cmax
[10] = mouse, in vivo, po, individual animal, read-out: Tmax
[11] = mouse, in vivo, po, mean, read-out: Cmax
[12] = mouse, in vivo, po, mean, read-out: Tmax
[13] = Table 4, oral 10 mg/kg, 3 h, individual animal, 10 mg/kg
[14] = Table 4, oral 10 mg/kg, 8 h, individual animal, 10 mg/kg
[15] = Table 4, oral 10 mg/kg, 24 h, individual animal, 10 mg/kg
[16] = Table 6, oral 10 mg/kg, 3.00 h, individual animal, 10 mg/kg
[17] = Table 6, oral 10 mg/kg, 8.00 h, individual animal, 10 mg/kg
[18] = Table 6, oral 10 mg/kg, 24.0 h, individual animal, 10 mg/kg

## Cc1cc(-c2ccc(F)cc2)nc2ccc(Oc3c(Cl)cc(-n4nc(C#N)c(=O)[nH]c4=O)cc3Cl)cc12 [Compound 3, 2-(3,5-Dichloro-4-((2-(4-fluorophenyl) -4-methylquinolin-6-yl)oxy)phenyl) -3,5-dioxo-2,3,4,5-tetrahydro-1,2,4-triazine-6-carbonitrile]
[1]; 3h after administration
  hepatic DIO1 gene expression: significantly up-regulated
[1]; after 8 h of administration, compared with the negative control group
  hepatic DIO1 gene expression: still effective
MHCα
  upregulation of MHCα in the heart: did not result in upregulation
Thyroid axis
  thyroid hormone levels: did not affect
[2]
  F: 36.3%
[2]; i.v., individual animal
  AUClast: 106.173 µg·h/mL and 104.125 µg·h/mL
  CL_obs: 0.67 mL/min/kg and 0.76 mL/min/kg and 0.75 mL/min/kg
  T1/2: 5.10 h and 6.62 h
  Vss_obs: 0.289 L/kg and 0.253 L/kg and 0.315 L/kg
[2]; i.v., mean
  CL_obs: 0.73 mL/min/kg
  Vss_obs: 0.286 L/kg
[2]; [7]
  AUC(0-t): 118 µg·h/mL
  half-life: 6.4 h
[2]; mouse, in vivo, iv, mean
  AUC(0-t): 109 µg·h/mL
  half-life: 6.04 h
[2]; [8]
  AUC(0-t): 62.5 µg·h/mL
  half-life: 4.31 h
[2]; [9]
  Cmax: 9650 ng/mL
[2]; [10]
  Tmax: 1 h
[2]; mouse, in vivo, po, mean
  AUC(0-t): 79.4 µg·h/mL
  half-life: 4.71 h
[2]; [11]
  Cmax: 10500 ng/mL
[2]; [12]
  Tmax: 0.83 h
[2]; p.o., individual animal
  AUClast: 100.901 µg·h/mL and 74.686 µg·h/mL
  Cmax: 12800 ng/mL and 9108 ng/mL
  T1/2: 4.80 h and 5.02 h
  Tmax: 0.50 h

## Cc1cc(C(F)(F)F)nc2ccc(Oc3c(Cl)cc(-n4nc(C#N)c(=O)[nH]c4=O)cc3Cl)cc12 [Compound 38, 2-(3,5-Dichloro-4-((2-trifluoromethyl-4-methylquinolin-6-yl)oxy)phenyl) -3,5-dioxo-2,3,4,5-tetrahydro-1,2,4-triazine-6-carbonitrile]
[3]
  effects on cardiac DIO1 and MHCα genes: neither compound 38 nor MGL3196 had significant effects
[1]; C57 mice, single administration, 10 mg/kg, after 24 h of administration
  expression of CYP7α1, ME2, and LDLR genes in the liver: significantly up-regulated
[1]; C57 mice, single administration, after 8 and 24 h of administration, T3 0.5 mg/kg, compound 38 10 mg/kg
  DIO1 gene expression in the liver: significantly up-regulated
[4]; [13]
  Heart: 115 ng/g and 199 ng/g and 113 ng/g
  Liver: 3778 ng/g and 3241 ng/g and 3353 ng/g
  Plasma: 8371 ng/mL and 7102 ng/mL and 6639 ng/mL
[4]; [14]
  Heart: 39.9 ng/g and 72.2 ng/g and 26.4 ng/g and 63.3 ng/g
  Liver: 582 ng/g and 895 ng/g and 264 ng/g and 729 ng/g
  Plasma: 2473 ng/mL and 4555 ng/mL and 2005 ng/mL and 3847 ng/mL
[4]; Table 4, oral 10 mg/kg, 24 h, individual animal
  Heart: BLQ
[4]; [15]
  Liver: 29.5 ng/g and 27.8 ng/g and 14.5 ng/g and 16.3 ng/g
  Plasma: 281 ng/mL and 192 ng/mL and 88.6 ng/mL and 93.6 ng/mL
[4]; [16]
  Heart: 215 ng/g and 169 ng/g
  Liver: 1478 ng/g and 1383 ng/g
  Plasma: 5796 ng/mL and 4534 ng/mL
[4]; [17]
  Heart: 196 ng/g and 116 ng/g
  Liver: 614 ng/g and 469 ng/g
  Plasma: 4487 ng/mL and 2490 ng/mL
[4]; [18]
  Heart: 6.36 ng/g and 13.7 ng/g and 20.5 ng/g
  Liver: 23.3 ng/g and 39.5 ng/g and 56.7 ng/g
  Plasma: 165 ng/mL and 335 ng/mL and 412 ng/mL
[4]; heart, 10 mg/kg, Table 4, 3 h, individual animal, read-out: Heart
  concentration at 3 h: 189 ng/g
[4]; heart, 10 mg/kg, Table 4, 3 h, mean, read-out: Heart Mean
  concentration at 3 h: 154 ng/g
[4]; heart, 10 mg/kg, Table 4, 8 h, mean, read-out: Heart Mean
  concentration at 8 h: 50.5 ng/g
[4]; heart, 10 mg/kg, Table 4, 24 h, mean, read-out: Heart Mean
  concentration at 24 h: 0 ng/g
[4]; heart, 10 mg/kg, Table 6, 3.00 h, individual animal, read-out: Heart
  concentration at 3 h: 197 ng/g
[4]; heart, 10 mg/kg, Table 6, 3.00 h, mean, read-out: Heart Mean
  concentration at 3 h: 194 ng/g
[4]; heart, 10 mg/kg, Table 6, 8.00 h, individual animal, read-out: Heart
  concentration at 8 h: 139 ng/g
[4]; heart, 10 mg/kg, Table 6, 8.00 h, mean, read-out: Heart Mean
  concentration at 8 h: 150 ng/g
[4]; heart, 10 mg/kg, Table 6, 24.0 h, mean, read-out: Heart Mean
  concentration at 24 h: 13.5 ng/g
[4]; liver, 10 mg/kg, Table 4, 3 h, individual animal, read-out: Liver
  concentration at 3 h: 4300 ng/g
[4]; liver, 10 mg/kg, Table 4, 3 h, mean, read-out: Liver Mean
  concentration at 3 h: 3670 ng/g
[4]; liver, 10 mg/kg, Table 4, 8 h, mean, read-out: Liver Mean
  concentration at 8 h: 617 ng/g
[4]; liver, 10 mg/kg, Table 4, 24 h, mean, read-out: Liver Mean
  concentration at 24 h: 22 ng/g
[4]; liver, 10 mg/kg, Table 6, 3.00 h, individual animal, read-out: Liver
  concentration at 3 h: 1880 ng/g
[4]; liver, 10 mg/kg, Table 6, 3.00 h, mean, read-out: Liver Mean
  concentration at 3 h: 1580 ng/g
[4]; liver, 10 mg/kg, Table 6, 8.00 h, individual animal, read-out: Liver
  concentration at 8 h: 689 ng/g
[4]; liver, 10 mg/kg, Table 6, 8.00 h, mean, read-out: Liver Mean
  concentration at 8 h: 591 ng/g
[4]; liver, 10 mg/kg, Table 6, 24.0 h, mean, read-out: Liver Mean
  concentration at 24 h: 39.8 ng/g
[4]; plasma, 10 mg/kg, Table 4, 3 h, individual animal, read-out: Plasma
  concentration at 3 h: 9340 ng/mL
[4]; plasma, 10 mg/kg, Table 4, 3 h, mean, read-out: Plasma Mean
  concentration at 3 h: 7860 ng/mL
[4]; plasma, 10 mg/kg, Table 4, 8 h, mean, read-out: Plasma Mean
  concentration at 8 h: 3220 ng/mL
[4]; plasma, 10 mg/kg, Table 4, 24 h, mean, read-out: Plasma Mean
  concentration at 24 h: 164 ng/mL
[4]; plasma, 10 mg/kg, Table 6, 3.00 h, mean, read-out: plasma Mean
  concentration at 3 h: 5260 ng/mL
[4]; plasma, 10 mg/kg, Table 6, 8.00 h, mean, read-out: plasma Mean
  concentration at 8 h: 3430 ng/mL
[4]; plasma, 10 mg/kg, Table 6, 24.0 h, mean, read-out: plasma Mean
  concentration at 24 h: 304 ng/mL
[4]; 10 mg/kg, Table 6, 3.00 h, individual animal, read-out: plasma
  concentration at 3 h: 5450 ng/mL
[4]; 10 mg/kg, Table 6, 8.00 h, individual animal, read-out: plasma
  concentration at 8 h: 3330 ng/mL
[5]; 1 mg/kg dosage group
  plasma TC levels: decreased
[5]; 10 mg/kg dosage group
  plasma TC levels: decreased
[2]
  F: 75.8%
[2]; i.v., individual animal
  AUClast: 95.351 µg·h/mL and 95.119 µg·h/mL
  CL_obs: 0.691 mL/min/kg and 0.859 mL/min/kg and 0.856 mL/min/kg
  Cmax: 95119 ng/mL
  T1/2: 4.30 h and 4.77 h
  Vss_obs: 0.22 L/kg and 0.27 L/kg and 0.267 L/kg
[2]; i.v., mean
  CL_obs: 0.802 mL/min/kg
  Vss_obs: 0.252 L/kg
[2]; [7]
  AUC(0-t): 119 µg·h/mL
  half-life: 3.93 h
[2]; mouse, in vivo, iv, individual animal, read-out: Cmax
  Cmax: 95400 ng/mL
[2]; mouse, in vivo, iv, mean
  AUC(0-t): 103 µg·h/mL
  half-life: 4.33 h
[2]; [8]
  AUC(0-t): 162 µg·h/mL
  half-life: 5.01 h
[2]; [9]
  Cmax: 26000 ng/mL
[2]; [10]
  Tmax: 0.5 h
[2]; mouse, in vivo, po, mean
  AUC(0-t): 156 µg·h/mL
  half-life: 4.44 h
[2]; [11]
  Cmax: 23100 ng/mL
[2]; [12]
  Tmax: 0.83 h
[2]; p.o., individual animal
  AUClast: 176.967 µg·h/mL and 130.466 µg·h/mL
  Cmax: 23595 ng/mL and 19689 ng/mL
  T1/2: 4.18 h and 4.13 h
  Tmax: 1.00 h
[6]
  serum TC/TG levels and LCL-C levels: significant decrease
